Reference: patent US6329497A, “Sandramycin analogs” (The Scripps Research Institute, priority 1999, dated 2001)

Assays:
[1] = tested on: calf thymus DNA and 5'-d(GCATGC)2; test: DNA binding affinity trends over calf thymus DNA and 5'-d(GCATGC)2 (fluorescence quenching)
Method: Apparent absolute DNA binding constants for 1-22 and related agents including luzopeptin A were obtained by measurement of the fluorescence quenching upon titration addition of calf thymus DNA or the deoxyoligonucleotides 5'-d(GCXXGC)2 where XX=AT, TA, GC, and CG. For each agent, the characteristic fluorescence excitation and emission spectra were recorded in 10 mM Tris-HCl, 75 mM NaCl (pH 7.4) buffer, FIG. 6. For the DNA binding assays which quantitate the fluorescence quenching, excitation outside the absorbance range of DNA was employed and the most intense fluorescence emission at a longer wavelength monitored. For assay of the DNA-induced fluorescence quenching of the agents, a 2 mL buffer solution of Tris-HCl (pH 7.4) and 75 mM NaCl was employed. For titration, small aliquots of DNA were added to solutions of the agents in Tris-HCl buffer (pH 7.4).
Despite these precautions, the fluorescence for a number of the analog solutions decreased for several of analogs (11, 14, 17, 21 and 22) and the quality of the binding constants for these should be viewed with caution. […] The titrations were carried out with 15 min time intervals between DNA additions to allow binding equilibration. […] The titration fluorescence quenching was analyzed by Scatchard analysis (Scatchard, G. Ann. N. Y. Acad. Sci. 1949, 51, 660) with the following equation: rb /c=Kb n-Kb rb where rb is the number of agent molecules bound per DNA base-pair, c is the free drug concentration, Kb is the apparent association constant, and n is the number of agent binding sites per base-pair.
A pronounced downward curvature in an infinite lattice such as calf thymus DNA is recognized to arise in part from neighbor exclusion where the binding of an agent excludes the subsequent binding at nearby sites. This exclusion manifests itself in the plot by a reduction in the apparent binding constant as the DNA lattice approaches saturation and the probability of finding a free site is diminished. In the calf thymus DNA studies, the binding also entails multiple classes of independent binding sites or modes. For simplicity, a linear fit of the high affinity binding sites was used to determine the binding constant attributable to bis-intercalation. For the deoxyoligonucleotides, the curvature can be more simply attributed to multiple classes of independent binding sites or binding modes. There are a number of mathematical methods to deconvolute the curved plot into such individual binding events. In the deoxyoligonucleotide studies, a non-linear fit described by Feldman was also used to deconvolute the curves. The model assumes one ligand with two binding types or sites. Since the number of binding sites is limited, we have interpreted this to indicate a high affinity bis-intercalation and a lower affinity binding potentially involving mono-intercalation. The formula was fit using the JMP^22 statistical fitting program using an initial approximation of the two n values and fitting for K1 and K2.
After 5 min of stirring, an initial fluorescence reading was taken with minimum exposure to the excitation beam. […] The excitation and emission wavelengths used for each analog varied and can be found in FIG. 6. The results of the titration were analyzed by Scatchard analysis. The linear portion of the Scatchard plot was used to determine the high affinity binding constants. In the case of the deoxyoligonucleotide study, a non-linear fit of the curve as described in the text was also used to determine the high affinity binding constant (Feldman, H. A. Anal. Biochem. 1972, 48, 317).

[2] = tested on: L1210 cell line; test: In vitro cytotoxic activity, L1210; type: cell-based
[3] = target: HIV-1 reverse transcriptase (Human immunodeficiency virus type 1 group M subtype B, UniProt P04585); test: Inhibition of HIV-1 reverse transcriptase; type: biochemical
Method: The assay was performed according to an available procedure (Goldman, M. E.; Salituro, G. S.; Bowen, J. A.; Williamson, J. M.; Zink, D. L.; Schleif, W. A.; Emini, E. A. Mol. Pharmacol. 1990, 38, 20) with slight modification. A 45 L solution of reaction buffer containing 55 mM Tris·HCl, pH 8.2, 80 mM potassium chloride, 12 mM MgCl2, 1 mM DTT, 50 M EGTA, 2.5 g/mL rA·dT, 0.5 Ci of [^3 H]TTP, 10 M TTP, 1 mg/mL BSA, and 0.01% Triton X-100 was added to a well in a filter cluster plate (Millipore MAHV N45). The reverse transcription reaction was initiated upon addition of the reverse transcriptase (1 unit; 1 unit=10 pmol of [^3 H]TMP incorporated/60 min at 37° C.). The plate was incubated at 37° C. for 90 min. The plate was then placed on ice and 200 µL of 13% trichloroacetic acid and 10 mM sodium pyrophosphate was added to each well. The plate was chilled for 2 h and the liquid vacuumed out through the filter using a Millipore manifold (Millipore MAVM 09601). The precipitate was washed with 1 M and 10 mM sodium pyrophosphate twice. The filter was punched out and placed in a scintillation vial. 4 mL of cocktail was added. Radioactivity was determined by liquid scintillation counting.
The effects of sandramycin and its analogs on HIV-1 reverse transcriptase were determined by incubating the agents and the rA·dT containing buffer at 25° C. for 30 min prior to addition of the reverse transcriptase. Reactions containing no agents were used as controls, and those lacking the transcriptase were used as blanks.

[4] = tested on: five cell lines; test: In vitro cytotoxic activity of key substructure analogs, five cell lines; type: cell-based; conditions: five cell lines

Cc1ccc2nc(C(=O)N[C@@H]3COC(=O)[C@H](C(C)C)N(C)C(=O)CN(C)C(=O)CNC(=O)[C@@H]4CCCCN4C(=O)[C@H](NC(=O)c4nc5ccc(C)cc5cc4O)COC(=O)[C@H](C(C)C)N(C)C(=O)CN(C)C(=O)CNC(=O)[C@@H]4CCCCN4C3=O)c(O)cc2c1 [compound 14, (N-(-3-Hydroxy-6-methylquinolinyl-2-carbonyl)-D-Ser-Pip-Gly-Sar-NMe-Val). sub.2 (Serine Hydroxyl) Dilactone]
DNA binding affinity, in words [1]: consistently slightly less effective
cytotoxic potency, fold less potent than 1 [2]: 1
HIV-1 reverse transcriptase inhibition, in words [3]: Comparable but slightly less potent inhibition

COc1ccc2nc(C(=O)NC3COC(=O)C(C(C)C)N(C)C(=O)CN(C)C(=O)CNC(=O)C4CCCCN4C(=O)C(NC(=O)c4nc5ccc(OC)cc5cc4OCc4ccccc4)COC(=O)C(C(C)C)N(C)C(=O)CN(C)C(=O)CNC(=O)C4CCCCN4C3=O)c(OCc3ccccc3)cc2c1 [compound 12, (N-(3-Benzyloxy-6-methoxy-quinolinyl-2-carbonyl)-D-Ser-Pip-Gly-Sar-NMe-Val)2 (Serine Hydroxyl) Dilactone]
cytotoxic potency, fold less potent than 2 [2]: 0.8
cytotoxic potency, fold less potent than 11 [2]: 400

CC(C)C1C(=O)OCC(NC(=O)c2cc3ccccc3cc2OCc2ccccc2)C(=O)N2CCCCC2C(=O)NCC(=O)N(C)CC(=O)N(C)C(C(C)C)C(=O)OCC(NC(=O)c2cc3ccccc3cc2OCc2ccccc2)C(=O)N2CCCCC2C(=O)NCC(=O)N(C)CC(=O)N1C [compound 6, (N-(3-Benzyl-oxynaphthyl-2-carbonyl)-D-Ser-Pip-Gly-Sar-NMe-Val)2 (Serine Hydroxyl) Dilactone]
cytotoxic potency, fold less potent than 2 [2]: > 5000
cytotoxic potency, fold less potent than 5 [2]: > 500

CC(C)[C@H]1C(=O)OC[C@@H](NS(=O)(=O)CC[Si](C)(C)C)C(=O)N2CCCC[C@H]2C(=O)NCC(=O)N(C)CC(=O)N(C)[C@@H](C(C)C)C(=O)OC[C@@H](NC(=O)c2nc3ccccc3cc2O)C(=O)N2CCCC[C@H]2C(=O)NCC(=O)N(C)CC(=O)N1C [compound 24, N^1 -SES,N^6 -(3-hydroxylquinoline-2-carbonyl) (D-Ser-Pip-Gly-Sar-NMe-Val)2 (Serine Hydroxyl) Dilactone]
fold less potent than 1 [4]: 5000-10000

CC(C)C1C(=O)OCC(NC(=O)c2nc3ccccc3nc2OCc2ccccc2)C(=O)N2CCCCC2C(=O)NCC(=O)N(C)CC(=O)N(C)C(C(C)C)C(=O)OCC(NC(=O)c2nc3ccccc3nc2OCc2ccccc2)C(=O)N2CCCCC2C(=O)NCC(=O)N(C)CC(=O)N1C [compound 20, (N-(3-Benzyl-oxyquinoxalyl-2-carbonyl)-D-Ser-Pip-Gly-Sar-NMe-Val)2 (Serine Hydroxyl) Dilactone]
cytotoxic potency, fold less potent than 19 [2]: 7

CC(C)[C@H]1C(=O)OC[C@@H](NC(=O)c2ccccn2)C(=O)N2CCCC[C@H]2C(=O)NCC(=O)N(C)CC(=O)N(C)[C@@H](C(C)C)C(=O)OC[C@@H](NC(=O)c2ccccn2)C(=O)N2CCCC[C@H]2C(=O)NCC(=O)N(C)CC(=O)N1C [compound 10, (N-(Pyridyl-2-carbonyl)-D-Ser-Pip-Gly-Sar-NMe-Val)2 (Serine Hydroxyl) Dilactone]
cytotoxic potency, fold less potent than 4 [2]: 4×10^5
cytotoxic potency, fold less potent than 8 [2]: 1000
HIV-1 reverse transcriptase inhibition, in words [3]: much less effective

CC(C)[C@H]1C(=O)OC[C@@H](NC(=O)c2nc3cc(Cl)ccc3cc2O)C(=O)N2CCCC[C@H]2C(=O)NCC(=O)N(C)CC(=O)N(C)[C@@H](C(C)C)C(=O)OC[C@@H](NC(=O)c2nc3cc(Cl)ccc3cc2O)C(=O)N2CCCC[C@H]2C(=O)NCC(=O)N(C)CC(=O)N1C [compound 16, (N-(7-Chloro-3-hydroxyquinolinyl-2-carbonyl)-D-Ser-Pip-Gly-Sar-NMe-Val). sub.2 (Serine Hydroxyl) Dilactone]
DNA binding affinity, in words [1]: nearly indistinguishable from 1
cytotoxic potency, fold less potent than 1 [2]: 0.5
HIV-1 reverse transcriptase inhibition, in words [3]: Comparable but slightly less potent inhibition

COc1ccc2nc(C(=O)N[C@@H]3COC(=O)[C@H](C(C)C)N(C)C(=O)CN(C)C(=O)CNC(=O)[C@@H]4CCCCN4C(=O)[C@H](NC(=O)c4ccc5cc(OC)ccc5n4)COC(=O)[C@H](C(C)C)N(C)C(=O)CN(C)C(=O)CNC(=O)[C@@H]4CCCCN4C3=O)ccc2c1 [compound 13, (N-(6-Methoxyquinolinyl-2-carbonyl)-D-Ser-Pip-Gly-Sar-NMe-Val)2 (Serine Hydroxyl) Dilactone]
cytotoxic potency, fold less potent than 4 [2]: 2
cytotoxic potency, fold less potent than 11 [2]: 10
HIV-1 reverse transcriptase inhibition, in words [3]: Comparable but slightly less potent inhibition

Sandramycin Bis-O-benzyl Ether [compound 2]
fold less potent than 1 [4]: 20-1000
cytotoxic potency, fold less potent than 1 [2]: 1000

(N-(3-Benzyl-oxypyridyl-2-carbonyl)-D-Ser-Pip-Gly-Sar-NMe-Val)2 (Serine Hydroxyl) Dilactons [compound 9]
cytotoxic potency, fold less potent than 2 [2]: 4000
cytotoxic potency, fold less potent than 8 [2]: 1000

COc1cc2ccccc2nc1C(=O)N[C@@H]1COC(=O)[C@H](C(C)C)N(C)C(=O)CN(C)C(=O)CNC(=O)[C@@H]2CCCCN2C(=O)[C@H](NC(=O)c2nc3ccccc3cc2OC)COC(=O)[C@H](C(C)C)N(C)C(=O)CN(C)C(=O)CNC(=O)[C@@H]2CCCCN2C1=O [compound 3, (N-(3-Methoxy-quinolinyl-2-carbonyl)-D-ser-Pip-Gly-Sar-NMe-Val)2 (Serine Hydroxyl) Dilactone]
HIV-1 reverse transcriptase inhibition, in words [3]: roughly maintain the HIV-1 reverse transcriptase inhibitory potency of 1
reduction in inhibitory potency on O-alkylation of the C3 phenol [3]: approx. 10

COc1ccc2nc(C(=O)NC3COC(=O)C(C(C)C)N(C)C(=O)CN(C)C(=O)CNC(=O)C4CCCCN4C(=O)C(NC(=O)c4nc5ccc(OC)cc5cc4O)COC(=O)C(C(C)C)N(C)C(=O)CN(C)C(=O)CNC(=O)C4CCCCN4C3=O)c(O)cc2c1 [compound 11, (N-(3-Hydroxy-6-Methoxy-quinolinyl-3-carbonyl)-D-Ser-Pip-Gly-Sar-NMe-Val)2 (Serine Hydroxyl) Dilactone]
DNA binding affinity, in words [1]: slightly less effective
cytotoxic potency, fold less potent than 1 [2]: 2

(N-(3-Benzyloxy-7-chloroquinolinyl-2-carbonyl)-D-Ser-Pip-Gly-Sar-NMe-Val)2 (Serine Hydroxyl) Dilactone [compound 17]
reduction of the binding affinity versus 16 ([1]; O-benzylation of chromophore phenol): 2.4 to 2.7 kcal/mol
reduction in inhibitory potency on O-alkylation of the C3 phenol [3]: > 500
